Laboratory results published in US6482859B1, “Microbicidal N-sulfonylglycin alkynyloxyphenethyl amide derivatives” (priority 1997, dated 2002).

melting point: 131 to 133 °C
SMILES: CCCS(=O)(=O)N[C@H](C(=O)NCCc1ccc(OCC#Cc2ccc(Cl)cc2)c(OC)c1)C(C)C [Compound 1.204, (S)-2-(Propylsulfonyl-amino)-3-methyl-butyric acid N-[2-{3-methoxy-4-(3-(4-chlorophenyl)-2-propyn-1-yloxy)-phenyl}-ethyl]-amide]
